From patent publication US20050239873A1 (priority 1999, published 2005)

Columns and labels:
[1] = system: RPMI-8226 cells; conditions: suboptimal combinations with etoposide or melphalan
Procedure: Current anti-myeloma regimens incorporate multiple drugs with different mechanisms of action. RPMI-8226 cells were treated with 2-OMeA1 in combination with standard chemotherapeutic agents used in myeloma treatment: etoposide, melphalan, or daunorubicin (Sonneveld and Segeren, Eur. J. Cancer 39:9-18, 2003).

[2] = system: mitochondria from TABX2S cells; assay: Swelling of isolated mitochondria (absorbance at 540 nm); design: species or system murine; conditions: 2 μg/ml
Excerpt: Mitochondrial PT is caused by opening of a large conductance channel in the inner mitochondrial membrane. Opening of a large conductance channel allows free distribution of solutes of less than 1,500 Da and results in dissipation of the proton gradient and osmotic swelling of mitochondria due to the higher solute concentration in the matrix. In isolated mitochondria, the colloid osmotic swelling associated with PT pore opening can be followed by measuring the optical density change at 540 nm (Kantrow et al., Biochem. Biophy. Res. Comm. 232:669-671, 1997).
Briefly, mitochondria were isolated from TABX2S cultured cells by a modification of the procedure of Maltese et al. (J. Biol. Chem. 260:11524-11529, 1985). Typically, 0.5 to 1×10^8 cells were harvested and washed once with homogenization buffer (250 mM sucrose, 10 mM Tris-HCl, 1 mM EDTA and 1 mg/ml BSA, (pH 7.4)). The cell suspension was exposed to nitrogen at 250 psi for 30 minutes in a “cell disruption bomb” (Parr, Moline, Ill.) or homogenized in a Dounce homogenizer with a loose-fitting pestle until >90% of cells were broken. The homogenate was centrifuged at 800×g for 10 minutes. The supernatant was removed and centrifuged at 10,000×g for 10 minutes at 4° C. The pellet was resuspended and again centrifuged at 10,000×g for 10 minutes. […]

Compound | killing in combination [1] | mitochondrial swelling [2]
CCCCCC[C@H]1C(=O)O[C@H](C)[C@H](NC(=O)c2cccc(NC=O)c2OC)C(=O)O[C@@H](C)[C@@H]1OC(=O)CC(C)C [2-OMeA1, 2-methoxy antimycin A1] | Supra-additive killing | 
antimycin A |  | caused mitochondrial swelling
